The source made the active and inactive calls. The rule behind the calls is not given here.
Columns and labels:
[1] = Toxicity in iv dosed female BALB/c mouse assessed as maximum tolerated dose administered once daily for 14 consecutive days; type: organism-based; conditions: in vivo, time 14 day
Mus musculus [2] = assay: Antitumor activity against mouse 4T1 cells implanted in female BALB/c mouse assessed as increase in body weight at 0.5 mg/kg, iv administered twice a week for 2 weeks; type: functional, organism-based
[3] = Toxicity in female BALB/c mouse assessed as body weight loss at 0.2 to 1.2 mg/kg, iv administered once daily for 14 consecutive days; type: organism-based; conditions: in vivo, 336 h, dose 0.2-1.2 mg/kg, time 14 day
[4] = Drug accumulation in mouse 4T1 cells implanted female BALB/c mouse lung at 0.5 mg/kg, iv by fluorescence detector; type: ADME, organism-based; conditions: in vivo
4T1 [5] = assay: Antitumor activity against mouse 4T1 cells implanted in female BALB/c mouse assessed as reduction on tumor volume at 0.5 mg/kg, iv administered twice a week for 2 weeks; type: functional, organism-based
[6] = Drug accumulation in mouse 4T1 cells implanted female BALB/c mouse tumor at 0.5 mg/kg, iv after 2 hrs by fluorescence detector; type: ADME, organism-based, Neoplasm; conditions: in vivo
4T1 [7] = assay: Antitumor activity against mouse 4T1 cells implanted in female BALB/c mouse assessed as inhibition of tumor growth at 0.5 mg/kg, iv administered twice a week for 2 weeks measured on day 18; type: functional; parameters: scale not given: the % may be the effect or the level left; conditions: time 18 day
[8] = Drug accumulation in mouse 4T1 cells implanted female BALB/c mouse kidney at 0.5 mg/kg, iv by fluorescence detector; type: ADME, organism-based; conditions: in vivo
HepG2 [9] = assay: Antiproliferative activity against human HepG2 cells assessed as reduction on cell proliferation in presence of beta-glucuronidase measured after 72 hrs by MTT assay; type: functional, cell-based
HepG2 [10] = assay: Antiproliferative activity against human HepG2 cells assessed as reduction on cell proliferation measured after 72 hrs by MTT assay; type: functional, cell-based
HCT-116 [11] = assay: Antiproliferative activity against human HCT-116 cells assessed as reduction on cell proliferation measured after 72 hrs by MTT assay; type: functional, cell-based
[12] = Plasma protein binding in male Sprague-Dawley rat measured after 0.25 mins by HPLC analysis; type: ADME, cell-free; conditions: read-out: PPB (converted)
A549 [13] = assay: Antiproliferative activity against human A549 cells assessed as reduction on cell proliferation in presence of beta-glucuronidase measured after 72 hrs by MTT assay; type: functional, cell-based
[14] = Drug distribution in mouse 4T1 cells implanted in female BALB/c mouse assessed as fold change in tumor at 1.2 mg/kg, iv measured after 48 hrs by fluorescence detector; type: ADME, organism-based, Neoplasm; conditions: in vivo
[15] = Drug distribution in mouse 4T1 cells implanted in female BALB/c mouse assessed as fold change in tumor at 1.2 mg/kg, iv measured after 24 hrs by fluorescence detector; type: ADME, organism-based, Neoplasm; conditions: in vivo
[16] = Plasma protein binding in female BALB/c mouse measured after 0.25 mins by HPLC analysis; type: ADME, cell-free; conditions: read-out: PPB (converted)
A549 [17] = assay: Antiproliferative activity against human A549 cells assessed as reduction on cell proliferation measured after 72 hrs by MTT assay; type: functional, cell-based
[18] = Plasma protein binding in female BALB/c mouse measured after 2 mins by HPLC analysis; type: ADME, cell-free; conditions: read-out: PPB (converted)
[19] = Toxicity in mouse 4T1 cells implanted in female BALB/c mouse assessed as pathological changes in spleen at 0.6 to 1.2 mg/kg, iv by H and E staining based analysis; type: organism-based; conditions: in vivo, dose 0.6-1.2 mg/kg
4T1 [20] = assay: Antitumor activity against mouse 4T1 cells implanted in female BALB/c mouse assessed as tumor cell apoptosis at 0.6 to 1.2 mg/kg, iv by TUNEL staining based fluorescence assay; type: functional, organism-based; conditions: dose 0.6-1.2 mg/kg
HCT-116 [21] = assay: Antiproliferative activity against human HCT-116 cells assessed as reduction on cell proliferation in presence of beta-glucuronidase measured after 72 hrs by MTT assay; type: functional, cell-based
[22] = Plasma protein binding in male Sprague-Dawley rat measured after 2 mins by HPLC analysis; type: ADME, cell-free; conditions: read-out: PPB (converted)
[23] = Drug distribution in mouse 4T1 cells implanted in female BALB/c mouse assessed as fold change in tumor at 1.2 mg/kg, iv measured after 2 hrs by fluorescence detector; type: ADME, organism-based, Neoplasm; conditions: in vivo
[24] = Drug distribution in mouse 4T1 cells implanted in female BALB/c mouse assessed as fold change in tumor at 1.2 mg/kg, iv measured after 6 hrs by fluorescence detector; type: ADME, organism-based, Neoplasm; conditions: in vivo
4T1 [25] = assay: Antiproliferative activity against mouse 4T1 cells assessed as reduction on cell proliferation measured after 72 hrs by MTT assay; type: functional, cell-based
[26] = Toxicity in mouse 4T1 cells implanted in female BALB/c mouse assessed as pathological changes in kidney at 0.6 to 1.2 mg/kg, iv by H and E staining based analysis; type: organism-based; conditions: in vivo, dose 0.6-1.2 mg/kg
[27] = Toxicity in mouse 4T1 cells implanted in female BALB/c mouse assessed as pathological changes in heart at 0.6 to 1.2 mg/kg, iv by H and E staining based analysis; type: organism-based; conditions: in vivo, dose 0.6-1.2 mg/kg
Mus musculus [28] = assay: Antitumor activity against mouse 4T1 cells implanted in female BALB/c mouse assessed as increase in body weight at 0.6 to 1.2 mg/kg, iv administered twice a week for 2 weeks; type: functional, organism-based; conditions: dose 0.6-1.2 mg/kg
4T1 [29] = assay: Antiproliferative activity against mouse 4T1 cells assessed as reduction on cell proliferation in presence of beta-glucuronidase measured after 72 hrs by MTT assay; type: functional, cell-based
[30] = Drug accumulation in mouse 4T1 cells implanted female BALB/c mouse tumor at 1.2 mg/kg, iv after 6 hrs by fluorescence detector; type: ADME, organism-based, Neoplasm; conditions: in vivo
4T1 [31] = assay: Antitumor activity against mouse 4T1 cells implanted in female BALB/c mouse assessed as inhibition of tumor growth at 0.6 mg/kg, iv administered twice a week for 2 weeks measured on day 18; type: functional; parameters: scale not given: the % may be the effect or the level left; conditions: time 18 day
4T1 [32] = assay: Antitumor activity against mouse 4T1 cells implanted in female BALB/c mouse assessed as reduction on tumor volume at 0.6 to 1.2 mg/kg, iv administered twice a week for 2 weeks; type: functional, organism-based; conditions: dose 0.6-1.2 mg/kg
[33] = Toxicity in mouse 4T1 cells implanted in female BALB/c mouse assessed as pathological changes in lung at 0.6 to 1.2 mg/kg, iv by H and E staining based analysis; type: organism-based; conditions: in vivo, dose 0.6-1.2 mg/kg
albumin [34] = target: T1, albumin (Homo sapiens, UniProt P02768); assay: Protein binding in human serum albumin measured after 0.25 mins by HPLC analysis; type: ADME, cell-free; conditions: read-out: PPB (converted)
4T1 [35] = assay: Antitumor activity against mouse 4T1 cells implanted in female BALB/c mouse assessed as inhibition of tumor growth at 0.6 to 1.2 mg/kg, iv by Ki67 staining based assay; type: functional, organism-based; conditions: dose 0.6-1.2 mg/kg
[36] = Toxicity in mouse 4T1 cells implanted in female BALB/c mouse assessed as pathological changes in liver at 0.6 to 1.2 mg/kg, iv by H and E staining based analysis; type: organism-based; conditions: in vivo, dose 0.6-1.2 mg/kg
MCF7 [37] = assay: Antiproliferative activity against human MCF7 cells assessed as reduction on cell proliferation measured after 72 hrs by MTT assay; type: functional, cell-based
[38] = Plasma protein binding in human measured after 2 mins by HPLC analysis; type: ADME, cell-free; conditions: read-out: PPB (converted)
MCF7 [39] = assay: Antiproliferative activity against human MCF7 cells assessed as reduction on cell proliferation in presence of beta-glucuronidase measured after 72 hrs by MTT assay; type: functional, cell-based
[40] = Plasma protein binding in human measured after 0.25 mins by HPLC analysis; type: ADME, cell-free; conditions: read-out: PPB (converted)
[41] = Toxicity in female BALB/c mouse assessed as body weight loss at 1 to 10 mg/kg, iv administered once daily for 14 consecutive days; type: organism-based; conditions: in vivo, 336 h, dose 1-10 mg/kg, time 14 day
4T1 [42] = assay: Antitumor activity against mouse 4T1 cells implanted in female BALB/c mouse assessed as inhibition of tumor growth at 1.2 mg/kg, iv administered twice a week for 2 weeks measured on day 18; type: functional; parameters: scale not given: the % may be the effect or the level left; conditions: time 18 day
albumin [43] = target: T1, albumin; assay: Protein binding in human serum albumin measured after 8 mins by HPLC analysis; type: ADME, cell-free; conditions: read-out: PPB (converted)

T1 sequence (P02768 whole entry): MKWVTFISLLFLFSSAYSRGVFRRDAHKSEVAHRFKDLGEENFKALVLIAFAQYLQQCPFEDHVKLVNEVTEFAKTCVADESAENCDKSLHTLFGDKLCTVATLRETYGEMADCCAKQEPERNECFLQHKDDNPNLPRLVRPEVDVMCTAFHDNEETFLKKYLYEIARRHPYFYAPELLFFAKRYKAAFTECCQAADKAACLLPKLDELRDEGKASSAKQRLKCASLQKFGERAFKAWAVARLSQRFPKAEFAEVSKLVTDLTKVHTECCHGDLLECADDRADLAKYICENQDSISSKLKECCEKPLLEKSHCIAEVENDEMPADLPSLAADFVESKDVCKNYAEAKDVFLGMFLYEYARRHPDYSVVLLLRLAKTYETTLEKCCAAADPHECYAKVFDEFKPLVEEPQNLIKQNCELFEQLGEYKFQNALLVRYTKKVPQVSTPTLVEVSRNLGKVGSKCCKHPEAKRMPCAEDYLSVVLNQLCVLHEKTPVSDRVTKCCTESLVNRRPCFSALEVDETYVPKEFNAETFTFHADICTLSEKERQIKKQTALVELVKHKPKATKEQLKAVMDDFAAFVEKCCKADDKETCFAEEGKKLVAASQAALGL

CC[C@@]1(O)C(=O)OCc2c1cc1n(c2=O)Cc2c-1nc1cc3c(cc1c2-c1ccncc1)OCO3
MTD at 336 h [1]: 0.4 mg/kg | Activity (Mus musculus [2]): Active | Activity [3]: 10% | Drug uptake [4]: Active | Activity (4T1 [5]): Active | Drug uptake [6]: 1.09% | Activity (4T1 [7]): 27% | Drug uptake [8]: Active

CC[C@@]1(O)C(=O)OCc2c1cc1n(c2=O)Cc2c-1nc1cc3c(cc1c2-c1cc[n+](Cc2ccc(O[C@@H]4O[C@@H](C(=O)O)[C@@H](O)[C@H](O)[C@H]4O)c(NC(=O)CCCn4cc(CNC(=O)CCCCCN5C(=O)C=CC5=O)nn4)c2)cc1)OCO3.O=C([O-])C(F)(F)F
Activity (HepG2 [9]): Active | Activity (HepG2 [10]): Active | Activity (HCT-116 [11]): Active | MTD at 336 h [1]: 2.5 mg/kg | fraction unbound at 15 s [12]: 0.0224 | Activity (A549 [13]): Active | fold change (FC) [14]: 14 | fold change (FC) [15]: 16 | fraction unbound at 15 s [16]: 0.0723 | Activity (A549 [17]): Active | fraction unbound at 2 min [18]: 0.0512 | Activity [19]: Non-Toxic | Activity (4T1 [20]): Active | Activity (HCT-116 [21]): Active | fraction unbound at 2 min [22]: 0.0188 | fold change (FC) [23]: 9 | fold change (FC) [24]: 18 | Activity (4T1 [25]): Active | Activity [26]: Non-Toxic | Activity [27]: Non-Toxic | Activity (Mus musculus [28]): Active | Activity (4T1 [29]): Active | Drug uptake [30]: 17.34% | Activity (4T1 [31]): 56% | Activity (4T1 [32]): Active | Activity [33]: Non-Toxic | fraction unbound at 15 s (albumin [34]): 0.0679 | Activity (4T1 [35]): Active | Activity [36]: Non-Toxic | Activity (MCF7 [37]): Active | fraction unbound at 2 min [38]: 0.0291 | Activity (MCF7 [39]): Active | fraction unbound at 15 s [40]: 0.034 | Activity [41]: 10% | Activity (4T1 [42]): 77% | fraction unbound at 8 min (albumin [43]): 0.015
